# In US11723890B2, “Methods of treatment using an mTORC1 modulator” (Navitor Pharmaceuticals, Inc., priority 2019, dated 2023):
# Marks after values point to notes of the source that are not given here.
# How the values were obtained:
# [1] = tested on: CSF neurotransmitter metabolites; assay: Example 2: CSF neurotransmitter metabolomics after a single dose; assay type: in vivo, human; details: healthy males; for 1-methyl-4-imidazoleacetate, CSF, ratio relative to baseline / Carboxyethyl-GABA, CSF, ratio relative to baseline / Homovanillate (HVA), CSF, ratio relative to baseline / Hydroxyindoleacetic acid (HIAA), CSF, ratio relative to baseline: single 2400 mg, n = 12
# From the text: Exploratory Objective(s): The exploratory objectives of this study were as follows using CSF and plasma samples collected over the same time frame as the PK samples: • conducted unbiased metabolomic analysis using validated methods as described: https://www.metabolon.com/what-we-do/our-technology. • conducted unbiased proteomic analysis using validated methods as described: https://www.biognosys.com/technology. Study Endpoints:
# This study was a Phase 1, double-blind, placebo-controlled, single-dose study to evaluate the PK, metabolomic, and proteomic profiles of compound A in plasma and CSF in healthy male subjects between the ages of 18 and 55 years. […] Once eligibility criteria were met and the ICF had been signed, subjects were admitted to the CRU on Day-1. On Day 1, intradural and venous catheters were inserted and subjects were randomly assigned to double-blind treatment with a single oral 2400 mg dose of compound A or placebo. The catheter insertion site was assessed on regular basis for early signs of local infection or CSF leakage. Time-matched CSF and blood samples were then collected for 36 hours, after which, the intradural and venous catheters were removed. See FIG. 7 for the study flow chart.
# Pharmacokinetic, Metabolomic, and Proteomic Variables: Blood and CSF samples for the PK, metabolomics, and proteomic analysis of compound A were collected at various time points and were processed and analyzed by a validated method for determining concentrations of compound A.
# Low CSF concentrations of HVA have been reported to be a marker of depressive symptoms. […] Values represent the ratio of metabolite concentrations for each time point relative to baseline. An increase from baseline is indicated with a single asterisk (*).
# healthy male volunteers = assay: Example 3: safety and tolerability of two sequential doses in healthy male volunteers; assay type: in vivo, human; details: healthy male subjects; two doses 2400 mg 48 hours apart
# Method: Safety Endpoints: The safety endpoint was to assess the safety and tolerability of sequential doses of compound A vs. placebo in healthy male volunteers, as assessed by clinical laboratory parameters, physical, neurologic, and psychiatric examinations, vital signs, ECGs, EEGs, and adverse events.
# This study was designed to evaluate the safety, tolerability, pharmacodynamics, and pharmacokinetics of two sequential doses of 2400 mg compound A (separated by 2 days), compared with placebo, in 24 healthy adult males (12 receiving compound A, 12 receiving placebo).
# [2] = tested on: qEEG and event-related potential (ERP); assay: Example 3: qEEG and event-related potential pharmacodynamics; assay type: in vivo, human; details: healthy males
# From the text: Pharmacodynamic Endpoints: The primary pharmacodynamic endpoint was the change from baseline in the difference between the compound A group and the placebo group on qEEG parameters, including:
# Fractal and oscillatory EEG band amplitudes
# Fractal and oscillatory EEG band intra- and interhemispheric coherences
# The secondary pharmacodynamic endpoints were the changes from baseline in the difference between the compound A group and the placebo group in ERP parameters, including: • Mismatch negativity (MMN) amplitude and latency • P300a amplitude and latency • P300b amplitude and latency • N100 amplitude and latency • N200 amplitude and latency • P200 amplitude and latency • Auditory steady-state response (ASSR) peak-to-peak amplitude • ASSR event-related spectral perturbation (ERSP) • ASSR inter-trial phase coherence (ITPC) • Mean time scores of qEEG parallel factor analysis (PARAFAC) atoms endpoints
# Pharmacodynamics were assessed via qEEG and event-related potential (ERP). Frequent PK sampling was included in the study to evaluate the PK of two doses of compound A given approximately 48 hours apart. A PK/PD model was developed that measures qEEG and ERP changes as a function of plasma concentration of compound A as well as determines whether there are any PK/PD differences between Dose 1 and Dose 2 effects.
# [3] = Nonclinical studies, observation of seizures; assay type: in vivo
# [4] = 2400 mg, not evident in placebo group
smiles,measurement,setting,value
"CC(C)(C[C@H](N)C(=O)O)C(F)F [Compound A, (S)-2-amino-5,5-difluoro-4,4-dimethylpentanoic acid]","onset of effect on key neurotransmitter turnover (GABA, histamine, serotonin, dopamine)","[1]; CSF, single oral 2400 mg",within two hours of treatment
same,duration of effect on key neurotransmitter turnover,"[1]; CSF, single oral 2400 mg, post-dose",36 h
same,"1-methyl-4-imidazoleacetate, CSF, ratio relative to baseline",[1]; 1 h post-dose,1.08
same,"Carboxyethyl-GABA, CSF, ratio relative to baseline",[1]; 1 h post-dose,1.12
same,"Homovanillate (HVA), CSF, ratio relative to baseline",[1]; 1 h post-dose,1.08
same,"Hydroxyindoleacetic acid (HIAA), CSF, ratio relative to baseline",[1]; 1 h post-dose,1.09
same,"1-methyl-4-imidazoleacetate, CSF, ratio relative to baseline",[1]; 2 h post-dose,1.35*
same,"Carboxyethyl-GABA, CSF, ratio relative to baseline",[1]; 2 h post-dose,1.29*
same,"Homovanillate (HVA), CSF, ratio relative to baseline",[1]; 2 h post-dose,1.41*
same,"Hydroxyindoleacetic acid (HIAA), CSF, ratio relative to baseline",[1]; 2 h post-dose,1.28*
same,"1-methyl-4-imidazoleacetate, CSF, ratio relative to baseline",[1]; 4 h post-dose,1.52*
same,"Carboxyethyl-GABA, CSF, ratio relative to baseline",[1]; 4 h post-dose,1.38*
same,"Homovanillate (HVA), CSF, ratio relative to baseline",[1]; 4 h post-dose,1.56*
same,"Hydroxyindoleacetic acid (HIAA), CSF, ratio relative to baseline",[1]; 4 h post-dose,1.1*
same,"1-methyl-4-imidazoleacetate, CSF, ratio relative to baseline",[1]; 8 h post-dose,1.47*
same,"Carboxyethyl-GABA, CSF, ratio relative to baseline",[1]; 8 h post-dose,1.38*
same,"Homovanillate (HVA), CSF, ratio relative to baseline",[1]; 8 h post-dose,1.3*
same,"Hydroxyindoleacetic acid (HIAA), CSF, ratio relative to baseline",[1]; 8 h post-dose,1.22
same,"1-methyl-4-imidazoleacetate, CSF, ratio relative to baseline",[1]; 12 h post-dose,1.56*
same,"Carboxyethyl-GABA, CSF, ratio relative to baseline",[1]; 12 h post-dose,1.4*
same,"Homovanillate (HVA), CSF, ratio relative to baseline",[1]; 12 h post-dose,1.46*
same,"Hydroxyindoleacetic acid (HIAA), CSF, ratio relative to baseline",[1]; 12 h post-dose,1.21
same,"1-methyl-4-imidazoleacetate, CSF, ratio relative to baseline",[1]; 24 h post-dose,1.33*
same,"Carboxyethyl-GABA, CSF, ratio relative to baseline",[1]; 24 h post-dose,1.24*
same,"Homovanillate (HVA), CSF, ratio relative to baseline",[1]; 24 h post-dose,1.34*
same,"Hydroxyindoleacetic acid (HIAA), CSF, ratio relative to baseline",[1]; 24 h post-dose,1.21*
same,"1-methyl-4-imidazoleacetate, CSF, ratio relative to baseline",[1]; 36 h post-dose,1.75*
same,"Carboxyethyl-GABA, CSF, ratio relative to baseline",[1]; 36 h post-dose,1.22*
same,"Homovanillate (HVA), CSF, ratio relative to baseline",[1]; 36 h post-dose,1.41*
same,"Hydroxyindoleacetic acid (HIAA), CSF, ratio relative to baseline",[1]; 36 h post-dose,1.28*
same,"deaths, SAEs, discontinuations due to TEAEs, Grade 2 or 3 TEAEs",healthy male volunteers,"no deaths or other SAEs, discontinuations due to TEAEs, or moderate (Grade 2) or severe (Grade 3) TEAEs"
same,dissociative effects,healthy male volunteers,No dissociative effects were reported
same,incidence of TEAEs,healthy male volunteers,8.3%
same,incidence of drug-related TEAEs,healthy male volunteers,0%
same,proconvulsant activity on safety EEGs,healthy male volunteers,no evidence
same,safety and tolerability,healthy male volunteers,generally safe and well tolerated
same,severity of TEAEs,healthy male volunteers,mild (Grade 1)
same,time to EEG activation after the first and second doses,[2]; 2400 mg Day 1 and Day 3,≤ 1 h
same,ASSR high-frequency (harmonic) resonances,[2]; [4],increased
same,"peak latency of N100, P200, P300A components in auditory oddball tasks",[2]; [4],reduced
same,changes in low- and high-frequency EEG bands,"[2]; 2400 mg, qEEG","dose-dependent decreases in low-frequency EEG bands (delta, theta) and increases in high-frequency EEG bands (gamma)"
same,delta and theta band amplitudes,"[2]; 2400 mg, qEEG",significantly decreased
same,high-frequency band amplitudes (higher beta and gamma bands),"[2]; 2400 mg, qEEG",increased
same,qEEG band coherences,"[2]; 2400 mg, qEEG","increased coherence in alpha, beta, and gamma bands"
same,theta-beta ratios,"[2]; 2400 mg, qEEG",decreased
same,alpha band amplitudes,"[2]; 2400 mg, qEEG, within 1 hour after dosing",decreased
same,neural activation on qEEG,"[2]; single dose 2400 mg, versus placebo",rapid and significant neural activation
same,seizures,[3],seizures have not been observed
